Reference: US20200405666A9, “TREATMENT OF SYMPTOMS ASSOCIATED WITH FEMALE GASTROPARESIS” (priority 2011, published 2020)
“Also recorded” adds a separate entry of the source.

Columns and labels:
[1] = Plasma concentration of metoclopramide 30 minutes post-dose, Visit 3 (single dose) and Visit 7 (steady state); assay type: in vivo, human; conditions: 10 mg and 14 mg IN, Visit 3 and Visit 7, 30 minutes post-dose
Procedure: Pharmacokinetic (PK) blood samples for the determination of metoclopramide concentration were obtained from all subjects on Visit 3, Day 0 (pre-dose and 30 minutes after dosing [single dose]) and at the Final Visit (Day 28) 30 minutes post-dose (steady state).
Pharmacokinetics: The pharmacokinetics (PK) of the study drug was evaluated in all subjects. FIG. 1 summarizes PK data (blood plasma concentration of metoclopramide in ng/mL) for both Treatment Arms (10 mg and 14 mg, intranasal) on visit 3 and visit 7. Individual data are represented by circles and the arithmetic mean and geometric mean of each group is represented by lines. (In each case, the upper line represents the arithmetic mean and the lower line represents the geometric mean.) In FIG. 2, the PK data are analyzed by gender.

[2] = Safety in the clinical study of metoclopramide nasal spray; assay type: in vivo, human; conditions: 10 mg or 14 mg IN four times daily, four weeks
Procedure: The objectives of this study were to evaluate the safety and the effectiveness of two doses of metoclopramide nasal spray solution, 10 mg and 14 mg, compared to placebo in reducing the symptoms of diabetic gastroparesis and to assess the plasma concentrations of two doses of metoclopramide nasal spray in subjects with diabetic gastroparesis following a single dose and at steady state. The aforementioned dosages for the treatment and control of gastroparesis were administered before meals and/or before bed time. Subjects who met the entry criteria after the Washout Period (Day −7 to Day −1) were randomized using an IVRS, to metoclopramide nasal spray 10 mg, 14 mg, or placebo, in roughly equal numbers (approximately 1:1:1) using a predetermined randomization schedule employing permuted blocks. Randomization was preformed centrally.
The study consisted of up to a 23-day Screening Period, a 7-day Washout Period (Day −7 to Day −1) followed by four weeks of study drug treatment. The total duration of each subject's participation was approximately 8 weeks, 287 subjects were enrolled in the study and were randomized to the following groups: Placebo (n=95), 10 mg intranasal (n=96) and 14 mg intranasal (n=96). Of those subjects enrolled, a total of 259 completed the study (˜90%).

CCN(CC)CCNC(=O)c1cc(Cl)c(N)cc1OC [metoclopramide, -amino-5-chloro-N-(2-(diethylamino)ethyl)-2-methoxybenzamide]
Difference in PK data (blood plasma concentration) between females and males [1]: no statistical difference; also recorded: not statistically significant | Dose-limiting toxicities [2]: no dose-limiting toxicities | Reports of tardive dyskinesia [2]: no reports of tardive dyskinesia
